What was measured:
[1] = tested on: C. elegans nematodes; experiment: Lifespan of C. elegans in hydration modified water media; assay type: in vivo; conditions: for Animals alive: USA I water; for effect on C. elegans survival: added to culture media, result in words
Description: C. elegans nematodes were grown in petri-type dishes containing normal nutrient liquid media prepared alternatively with USA I water (described in Example 2) lacking any further additive component (control) or the same water supplemented with a parent α-, β-, or γ-cyclodextrin, and/or a bioactive agent, as an active component of cellular hydration. Fifty±3 worms were transferred to each dish. Each condition was repeated in triplicate. Experiments were repeated for USA II and BP I waters described in Example 2. A. Addition of parent α-, β- and γ-cyclodextrins. B. Addition of L-arginine and nicotinamide. C. Addition of inclusion complexes of cyclodextrins with L-arginine and nicotinamide.

[2] = NIR spectroscopy of water bonding with cyclodextrin additives; assay type: physicochemical
Description: Hydration bond energies in pure waters and solutions of the same waters containing cyclodextrin compounds were assayed using IR spectroscopy in the near and middle infrared ranges. To record linear signals throughout an entire wavelength range, attenuation from water absorbance was minimized with a short optical length cuvette.
NIR range spectra were registered on a FOSS NIR Systems, Inc. 6500 spectrometer and Sample Transport Module (STM) using a 1 mm-es cuvette. […]
Three samples of water were used in the present study. A first water sample (USA I) was obtained from the U.S. and was purified by reverse osmosis, carbon filtration, ultraviolet light exposure, membrane filtration to 0.2 micron absolute, and ozonation. A second water sample (USA II) was also obtained from the U.S. A third water sample (BP I) was obtained from Budapest, Hungary.
The following cyclodextrins were added to the above described water samples at a concentration range of 0.1%-5% w/v: • α-cyclodextrin (αCD also denoted as ACD), Lot. No. CYL-2322. • β-cyclodextrin (βCD also denoted as BCD). Lot. No. CYL-2518/2. • γ-cyclodextrin (γCD also denoted as GCD), Lot. No. CYL-2323. • 2-hydroxypropyl-β-cyclodextrin (HPβCD, HPBCD), DS*=3.5, Lot. No. CYL-2232. • 2-hydroxypropyl-γ-cyclodextrin (HPCD, HPGCD), DS*=4.8, Lot. No. CYL-2258. • carboxymethyl-β-cyclodextrin (CMBCD), Lot. No. CYL-2576. • quaternary-ammonium-β-cyclodextrin (QABCD).

[3] = tested on: Wheat seeds (Triticum aestivum); experiment: Wheat seed germination kinetics in additive-modified water; assay type: in vivo; conditions: additive 0.5% w/v in USA I water
Description: Wheat seeds (Triticum aestivum) were germinated using USA I, USA II, and BP I waters described for Example 2. Germination rate using un-supplemented (control) water was compared to that with the same water variously supplemented with a cyclodextrin component, and/or a bioactive agent, as an active component of cellular hydration. For each condition, ten seeds were placed in continuous water contact in a Petri-type dish kept at 25 C in 12 hr light/dark cycles. Photometric images were recorded on days 1 to 6 after seeding. The percentage of seeds germinated was calculated and compared as a function of time and of the applied additive concentrations.
Water samples for seed germination were used alone with no additive, or containing cyclodextrins, or containing clathrate inclusion complexes of cyclodextrin with L-arginine or with nicotinamide (both obtained from Sigma Chemical Co.; St. Louis, Mo.), or with L-carnitine (from Lonza AG; Switzerland). […] Additive solutions were prepared fresh on the day of germination start.
Parent cyclodextrins α-cyclodextrin (ACD), β-cyclodextrin (BCD), and γ-cyclodextrin (GCD), were obtained from Wacker Chemie (Munich, Germany). The following derivatized cyclodextrins were obtained from Cyclolab Ltd. (Budapest, Hungary): hydroxypropylated-beta-cyclodextrin (DS˜3)(HPBCD), carboxymethylated-β-cyclodextrin (DS˜3.5)(CMBCD), 2-hydroxy-3-N,N,N-trimethylamino)propyl-β-cyclodextrin chloride (DS˜3.6)(QABCD).
Germination kinetics in control and additive-modified water under identical conditions were quantified as the percentage of the seeds having a sprout. Each determination consisted of 100 seeds for each parameter. Results are reported in Table 1, below, and in FIGS. 11-13.

[4] = life span 10 days, parent cyclodextrin 0.1% w/v in media, Table 3
[5] = life span 15 days, parent cyclodextrin 0.1% w/v in media, Table 3
[6] = life span 18 days, parent cyclodextrin 0.1% w/v in media, Table 3
[7] = life span 10 days, derivatized cyclodextrin 0.1% w/v in media, Table 4
[8] = life span 15 days, derivatized cyclodextrin 0.1% w/v in media, Table 4
[9] = life span 18 days, derivatized cyclodextrin 0.1% w/v in media, Table 4
[10] = wavelength region 900-1200 nm, FIG. 7

Row | Compound | Animals alive [1, 4] | Animals alive [1, 5] | Animals alive [1, 6] | Animals alive [1, 7] | Animals alive [1, 8] | Animals alive [1, 9] | water-bond interactions, second-derivative NIR spectra ([2]; 1200-1500 nm, FIG. 8) | water-bond interactions, second-derivative NIR spectra ([2]; 1620-1710 nm, FIG. 9) | water-bond interactions, second-derivative NIR spectra ([2]; 2170-2370 nm, FIG. 10) | water-bond interactions, second-derivative NIR spectra [2, 10] | also measured
1 | OC[C@H]1O[C@@H]2O[C@H]3[C@H](O)[C@@H](O)[C@@H](O[C@H]4[C@H](O)[C@@H](O)[C@@H](O[C@H]5[C@H](O)[C@@H](O)[C@@H](O[C@H]6[C@H](O)[C@@H](O)[C@@H](O[C@H]7[C@H](O)[C@@H](O)[C@@H](O[C@H]8[C@H](O)[C@@H](O)[C@@H](O[C@H]9[C@H](O)[C@@H](O)[C@@H](O[C@H]1[C@H](O)[C@H]2O)O[C@@H]9CO)O[C@@H]8CO)O[C@@H]7CO)O[C@@H]6CO)O[C@@H]5CO)O[C@@H]4CO)O[C@@H]3CO [γ-Cyclodextrin, γ-cyclodextrin] | 100 % of initial | 13 % of initial | 2 % of initial | – | – | – | – | – | – | – | –
2 | OC[C@H]1O[C@@H]2O[C@H]3[C@H](O)[C@@H](O)[C@@H](O[C@H]4[C@H](O)[C@@H](O)[C@@H](O[C@H]5[C@H](O)[C@@H](O)[C@@H](O[C@H]6[C@H](O)[C@@H](O)[C@@H](O[C@H]7[C@H](O)[C@@H](O)[C@@H](O[C@H]8[C@H](O)[C@@H](O)[C@@H](O[C@H]1[C@H](O)[C@H]2O)O[C@@H]8CO)O[C@@H]7CO)O[C@@H]6CO)O[C@@H]5CO)O[C@@H]4CO)O[C@@H]3CO [β-Cyclodextrin, β-cyclodextrin] | 100 % of initial | 18 % of initial | 0 % of initial | – | – | – | – | – | – | – | –
3 | carboxymethyl-β-cyclodextrin | – | – | – | 94 % of initial | 11 % of initial | 0 % of initial | further significantly modified | significantly modified | significantly modified | further significantly modified | –
4 | N=C(N)NCCC[C@H](N)C(=O)O [L-Arg, L-arginine, reference compound] | – | – | – | – | – | – | – | – | – | – | effect on C. elegans survival [1]: little effect; wheat seed germination rate ([3]; day 0, Table 1): 0 percentage of total seeds; wheat seed germination rate ([3]; day 1, Table 1): 0 percentage of total seeds; wheat seed germination rate ([3]; day 2, Table 1): 30 percentage of total seeds; wheat seed germination rate ([3]; day 3, Table 1): 45 percentage of total seeds; wheat seed germination rate ([3]; day 4, Table 1): 60 percentage of total seeds
5 | CC(O)COC[C@H]1O[C@@H]2O[C@H]3[C@H](O)[C@@H](O)[C@@H](O[C@H]4[C@H](O)[C@@H](O)[C@@H](O[C@H]5[C@H](O)[C@@H](O)[C@@H](O[C@H]6[C@H](O)[C@@H](O)[C@@H](O[C@H]7[C@H](O)[C@@H](O)[C@@H](O[C@H]8[C@H](O)[C@@H](O)[C@@H](O[C@H]1[C@H](O)[C@H]2O)O[C@@H]8COCC(C)O)O[C@@H]7COCC(C)O)O[C@@H]6COCC(C)O)O[C@@H]5COCC(C)O)O[C@@H]4COCC(C)O)O[C@@H]3COCC(C)O (stereo partly drawn) [HP-β-Cyclodextrin, 2-hydroxypropyl-β-cyclodextrin] | – | – | – | 96 % of initial | 17 % of initial | 0 % of initial | significantly modified | significantly modified | significantly modified | further significantly modified | –
6 | OC[C@H]1O[C@@H]2O[C@H]3[C@H](O)[C@@H](O)[C@@H](O[C@H]4[C@H](O)[C@@H](O)[C@@H](O[C@H]5[C@H](O)[C@@H](O)[C@@H](O[C@H]6[C@H](O)[C@@H](O)[C@@H](O[C@H]7[C@H](O)[C@@H](O)[C@@H](O[C@H]1[C@H](O)[C@H]2O)O[C@@H]7CO)O[C@@H]6CO)O[C@@H]5CO)O[C@@H]4CO)O[C@@H]3CO [α-Cyclodextrin, α-cyclodextrin] | 100 % of initial | 20 % of initial | 2 % of initial | – | – | – | – | – | – | – | wheat seed germination rate ([3]; day 0, Table 1): 0 percentage of total seeds; wheat seed germination rate ([3]; day 0, Table 2): 0 percentage of the seeds; wheat seed germination rate ([3]; day 1, Table 1): 0 percentage of total seeds; wheat seed germination rate ([3]; day 1, Table 2): 11 percentage of the seeds; wheat seed germination rate ([3]; day 2, Table 1): 48 percentage of total seeds; wheat seed germination rate ([3]; day 2, Table 2): 18 percentage of the seeds; wheat seed germination rate ([3]; day 3, Table 1): 70 percentage of total seeds; wheat seed germination rate ([3]; day 3, Table 2): 68 percentage of the seeds; wheat seed germination rate ([3]; day 4, Table 1): 85 percentage of total seeds; wheat seed germination rate ([3]; day 4, Table 2): 92 percentage of the seeds
7 | 2-hydroxy-3-N,N,N-trimethylamino)propyl-β-cyclodextrin chloride [Quaternaryammonium-β-Cyclodextrin] | – | – | – | 98 % of initial | 13 % of initial | 2 % of initial | significantly modified | significantly modified | further significantly modified | significantly modified | modified micro-structure of hydrogen bonds in bulk water (spectral changes), ranking of effect ([2]; among cyclodextrin-treated water samples, FIGS. 9 and 10): largest
8 | NC(=O)c1cccnc1 [nicotinamide, reference compound] | – | – | – | – | – | – | – | – | – | – | effect on C. elegans survival [1]: little effect; wheat seed germination rate ([3]; day 0, Table 2): 0 percentage of the seeds; wheat seed germination rate ([3]; day 1, Table 2): 0 percentage of the seeds; wheat seed germination rate ([3]; day 2, Table 2): 4 percentage of the seeds; wheat seed germination rate ([3]; day 3, Table 2): 10 percentage of the seeds; wheat seed germination rate ([3]; day 4, Table 2): 60 percentage of the seeds

Reference: patent US10610524B2, “Cellular hydration compositions” (Eastpond Laboratories Limited, priority 2010, dated 2020)
